# Read-outs that look alike come from different tables or passages of the source.
# Columns and labels:
# [1] = tested on: Peptococcus asaccharolyticus 1302; experiment: Susceptibility of anaerobic bacterial isolates (MIC), agar-dilution; format: cell-based
# [2] = tested on: Peptococcus prevoti 1281; experiment: as above; format: cell-based; details: 24 h
# [3] = tested on: Bacteriodes thetaiotaomicron 1438; experiment: as above; format: cell-based
# [4] = tested on: Bacteriodes vulgatis 1211; experiment: as above; format: cell-based
# [5] = tested on: Bacteriodes corrodens 1874; experiment: as above; format: cell-based
# [6] = tested on: Bacteriodes fragilis 1936B; experiment: as above; format: cell-based
# [7] = tested on: Clostridium perfringens 81; experiment: microbe, parasite or virus in culture; format: cell-based; details: Clostridium perfringens, 81, 24 h
# [8] = tested on: Fusobacterium necrophorum 6054A; experiment: Susceptibility of anaerobic bacterial isolates (MIC), agar-dilution; format: cell-based
# [9] = tested on: Bacteriodes fragilis 111; experiment: as above; format: cell-based
# [10] = tested on: Streptococcus sp.; format: cell-based; details: Veterinary organism Streptococcus sp.; agar-dilution
# Experimental: (§1) The A80915 antibiotics inhibit the growth of bacteria which are pathogenic to animal life. […] The MIC's in Table III were determined by conventional agar-dilution assays.
# [11] = tested on: Staphylococcus epidermis EPI1; format: cell-based; details: Staphylococcus epidermis EPI1; agar-dilution; read-out: MIC
# Experimental: as §1
# [12] = tested on: Staphylococcus epidermis 222; format: cell-based; details: Staphylococcus epidermis 222; agar-dilution; read-out: MIC
# Experimental: as §1
# [13] = tested on: Staphylococcus aureus X400; format: cell-based; details: Staphylococcus aureus X400; agar-dilution; read-out: MIC
# Experimental: as §1
# [14] = tested on: Streptococcus faecium 2041; format: cell-based; details: Enterococcus faecium; Streptococcus faecium 2041; agar-dilution; read-out: MIC
# Experimental: as §1
# [15] = tested on: Mycoplasma gallisepticum; format: cell-based; details: Mycoplasmoides gallisepticum; Veterinary organism Mycoplasma gallisepticum; agar-dilution
# Experimental: as §1
# [16] = tested on: Staphylococcus sp.; format: cell-based; details: Veterinary organism Staphylococcus sp.; agar-dilution
# Experimental: as §1
# [17] = tested on: Streptococcus faecium X66; format: cell-based; details: Enterococcus faecium; Streptococcus faecium X66; agar-dilution; read-out: MIC
# Experimental: as §1
# [18] = tested on: Gram-negative; format: cell-based; details: agar-dilution
# Experimental: as §1
# [19] = tested on: Staphylococcus aureus V41; format: cell-based; details: Staphylococcus aureus V41; agar-dilution; read-out: MIC
# Experimental: as §1
# [20] = tested on: Pasteurella multocida; format: cell-based; details: Veterinary organism Pasteurella multocida; agar-dilution
# Experimental: as §1
# [21] = tested on: Streptococcus pneumoniae Park1; format: cell-based
# Experimental: as §1
# [22] = tested on: Salmonella typhimurium; format: cell-based; details: Salmonella enterica; Veterinary organism Salmonella typhimurium; agar-dilution
# Experimental: as §1
# [23] = tested on: Staphylococcus aureus X1.1; format: cell-based; details: Staphylococcus aureus X1.1; agar-dilution; read-out: MIC
# Experimental: as §1
# [24] = tested on: Streptococcus pyogenes C203; format: cell-based; details: Streptococcus pyogenes C203; agar-dilution; read-out: MIC
# Experimental: as §1
# [25] = tested on: Mycoplasma hyopneumoniae; format: cell-based; details: Mesomycoplasma hyopneumoniae; Veterinary organism Mycoplasma hyopneumoniae; agar-dilution
# Experimental: as §1
# [26] = tested on: Escherichia coli; format: cell-based; details: Veterinary organism Escherichia coli; agar-dilution
# Experimental: as §1
# [27] = tested on: Bordetella bronchiseptica; format: cell-based; details: Veterinary organism Bordetella bronchiseptica; agar-dilution
# Experimental: as §1
# [28] = tested on: Pasteurella hemolytica; format: cell-based; details: Veterinary organism Pasteurella hemolytica; agar-dilution
# Experimental: as §1
# [29] = tested on: Peptostreptococcus anaerobius 1428; experiment: Susceptibility of anaerobic bacterial isolates (MIC), agar-dilution; format: cell-based
# [30] = tested on: Propionibacterium acnes 79; experiment: as above; format: cell-based
# [31] = tested on: Fusobacterium symbiosum 1470; experiment: as above; format: cell-based
# [32] = tested on: Eubacterium aerofaciens 1235; experiment: as above; format: cell-based; details: Collinsella aerofaciens, 1235, 24 h
# [33] = tested on: Trichomonas vaginalis; experiment: Anti-protozoan activity (MIC); format: cell-based
# [34] = tested on: Trichomonas foetus; experiment: Anti-protozoan activity (MIC); format: cell-based; details: Tritrichomonas foetus
# [35] = tested on: Bacteriodes melaninogenicus 2736; experiment: Susceptibility of anaerobic bacterial isolates (MIC), agar-dilution; format: cell-based
# [36] = Acute toxicity in mice, intraperitoneal injection; details: mouse, in vivo, ip
# Description: The acute toxicity of the A80915 antibiotics in mice, when administered by intraperitoneal injection and expressed as LD50, is shown in Table V.
# [37] = tested on: Bacteriodes melaninogenicus 1856/28; experiment: Susceptibility of anaerobic bacterial isolates (MIC), agar-dilution; format: cell-based
# [38] = tested on: Bacteriodes fragilis 1877; experiment: as above; format: cell-based
# [39] = tested on: Clostridium difficile 2994; experiment: as above; format: cell-based; details: Clostridioides difficile, 2994, 24 h
# [40] = tested on: Peptostreptococcus intermedius 1264; experiment: as above; format: cell-based; details: Peptostreptococcus, 1264, 24 h
# [41] = tested on: Clostridium septicum 1128; experiment: as above; format: cell-based; details: 24-hour incubation
# Experimental: The A80915 antibiotics also are active against anaerobic bacteria. […] End points were read after 24-hour incubation.
# [42] = tested on: Candida albicans; experiment: Anti-fungal activity (MIC); format: cell-based
# [43] = Spontaneous loss of nitrogen on standing in solvent; format: physicochemical; details: standing at room temperature in a solvent such as methanol, ethanol or water
# Description: Loss of nitrogen is accelerated by, for example, heating or the addition of salts or mild reducing agents such as sodium hyposulfite, and the like.
structure (smiles),measurement,setting,value
C=C1CCC(Cl)C(C)(C)C1CC12OC(C)(C)C(Cl)CC1(Cl)C(=O)c1c(cc(O)c(C)c1O)C2=O (stereo not shown) [A80915A],MIC,"[1]; Peptoniphilus asaccharolyticus, Peptococcus asaccharolyticus 1302, agar-dilution, 24-hour incubation, read-out: MIC",16 µg/mL
same,MIC,[2],4 µg/mL
same,MIC,"[3]; Bacteriodes thetaiotaomicron 1438, agar-dilution, 24-hour incubation, read-out: MIC",> 128 µg/mL
same,MIC,"[4]; Bacteriodes vulgatis 1211, agar-dilution, 24-hour incubation, read-out: MIC",> 128 µg/mL
same,MIC,"[5]; Bacteriodes corrodens 1874, agar-dilution, 24-hour incubation, read-out: MIC",> 128 µg/mL
same,MIC,"[6]; Bacteriodes fragilis 1936B, agar-dilution, 24-hour incubation, read-out: MIC",> 128 µg/mL
same,MIC,[7],4 µg/mL
same,MIC,"[8]; Fusobacterium necrophorum 6054A, agar-dilution, 24-hour incubation, read-out: MIC",> 128 µg/mL
same,MIC,"[9]; Bacteriodes fragilis 111, agar-dilution, 24-hour incubation, read-out: MIC",> 128 µg/mL
same,MIC,[10],0.2 µg/mL
same,MIC,[11],2 µg/mL
same,MIC,[12],2 µg/mL
same,MIC,[13],2 µg/mL
same,MIC,[14],8 µg/mL
same,MIC,[15],0.78 µg/mL
same,MIC,[16],0.1 µg/mL
same,MIC,[17],2 µg/mL
same,MIC,[18],> 128 µg/mL
same,MIC,[19],2 µg/mL
same,MIC,[20],3.12 µg/mL
same,MIC,"[21]; Streptococcus pneumoniae Park1, agar-dilution, read-out: MIC",32 µg/mL
same,MIC,[22],> 50 µg/mL
same,MIC,[23],2 µg/mL
same,MIC,[24],32 µg/mL
same,MIC,[25],3.12 µg/mL
same,MIC,[26],> 50 µg/mL
same,MIC,[27],> 50 µg/mL
same,MIC,[28],> 50 µg/mL
same,MIC,"[29]; Peptostreptococcus anaerobius 1428, agar-dilution, 24-hour incubation, read-out: MIC",> 128 µg/mL
same,MIC,"[30]; Cutibacterium acnes, Propionibacterium acnes 79, agar-dilution, 24-hour incubation, read-out: MIC",32 µg/mL
same,MIC,"[31]; Fusobacterium symbiosum 1470, agar-dilution, 24-hour incubation, read-out: MIC",> 128 µg/mL
same,MIC,[32],4 µg/mL
same,MIC,[33],12.5 µg/mL
same,MIC,[34],50 µg/mL
same,MIC,"[35]; Bacteriodes melaninogenicus 2736, agar-dilution, 24-hour incubation, read-out: MIC",> 128 µg/mL
same,LD50,[36],212 mg/kg
same,MIC,"[37]; Bacteriodes melaninogenicus 1856/28, agar-dilution, 24-hour incubation, read-out: MIC",2 µg/mL
same,MIC,"[38]; Bacteriodes fragilis 1877, agar-dilution, 24-hour incubation, read-out: MIC",> 128 µg/mL
same,MIC,[39],4 µg/mL
same,MIC,[40],4 µg/mL
same,MIC,[41],4 µg/mL
same,MIC,[42],> 40 µg/mL
C=C1CCC(Cl)C(C)(C)C1CC12OC(C)(C)C(Cl)CC1(Cl)C(=O)c1c(O)c(C)c([O-])c([N+]#N)c1C2=O (stereo not shown) [A80915B],MIC,"[1]; Peptoniphilus asaccharolyticus, 1302, 24 h",128 µg/mL
same,MIC,[2],64 µg/mL
same,MIC,[3]; 24 h,> 128 µg/mL
same,MIC,[4]; 24 h,> 128 µg/mL
same,MIC,[5]; 24 h,> 128 µg/mL
same,MIC,[6]; 24 h,> 128 µg/mL
same,MIC,[7],> 128 µg/mL
same,MIC,"[8]; Fusobacterium necrophorum, 6054A, 24 h",> 128 µg/mL
same,MIC,[9]; 24 h,> 128 µg/mL
same,MIC,[10],0.1 µg/mL
same,MIC,[11],2 µg/mL
same,MIC,[12],2 µg/mL
same,MIC,[13],2 µg/mL
same,MIC,[14],8 µg/mL
same,MIC,[15],0.1 µg/mL
same,MIC,[16],< 0.05 µg/mL
same,MIC,[17],8 µg/mL
same,MIC,[18],> 128 µg/mL
same,MIC,[19],2 µg/mL
same,MIC,[20],0.2 µg/mL
same,MIC,"[21]; Streptococcus pneumoniae, PARK1",8 µg/mL
same,MIC,[22],> 50 µg/mL
same,MIC,[23],2 µg/mL
same,MIC,[24],8 µg/mL
same,MIC,[25],3.12 µg/mL
same,MIC,[26],> 50 µg/mL
same,MIC,[27],> 50 µg/mL
same,MIC,[28],12.5 µg/mL
same,MIC,"[29]; Peptostreptococcus anaerobius, 1428, 24 h",> 128 µg/mL
same,MIC,"[30]; Cutibacterium acnes, 79, 24 h",128 µg/mL
same,MIC,"[31]; Fusobacterium, 1470, 24 h",> 128 µg/mL
same,MIC,[32],> 128 µg/mL
same,MIC,[33],6.25 µg/mL
same,MIC,[34],12.5 µg/mL
same,MIC,[35]; 24 h,> 128 µg/mL
same,LD50,[36],75 mg/kg
same,MIC,[37]; 24 h,128 µg/mL
same,MIC,[38]; 24 h,> 128 µg/mL
same,MIC,[39],> 128 µg/mL
same,MIC,[40],128 µg/mL
same,MIC,[41],> 128 µg/mL
same,loss of nitrogen (stability),[43],spontaneously lose nitrogen
same,MIC,[42],5 µg/mL
